The subject of experiment [1] is BiP. Kind of experiment: Levels of ER lumenal chaperone BiP in NCI-H929. Format: cell-based, human. The following applies: NCI-H929, data not shown.
Experiment [2] deals with NCI-H929. Description: cells. On the procedure:
For cell survival assays, cells were plated in 96-well culture plates (BD Biosciences, San Jose, Calif.), 100,000 cells/well with 200 μl, of culture media. The effect of the drugs on cell survival was assessed, for example, by measuring 3-(4,5-dimethylthiazol-2-yl)-5-(3-carboxymethoxyphenyl)-2-(4-sulphophenyl)-2H-tetrazolium, inner salt (MTS) (Promega, Madison, Wis.) dye absorbance of viable cells by adding 40 μL of 5 mg/mL MTS to each well for the last 4 hours of drug exposure. Additional wells containing cells only (untreated control) or medium only (background medium control) were used as controls. Absorbance at 490 nm (A490) was measured using a spectrophotometer (Dynatech Laboratories, Chantilly, Va.). Viability was estimated according to the following formula: […]
Briefly, the cellular fraction affected (Fa) was calculated based on an MTS assay after exposing cells to the drugs alone or in combination at a given dose compared to untreated cells, using the formula: Fa=100−% Viable Cells. Fa values were entered into Calcusyn software (Biosoft, Ferguson, Mo. and Cambridge, United Kingdom) to obtain CI values. CI values <1.0 indicated a synergistic effect of the drugs used in combination. For Inhibitory Concentration, or IC, calculations, dose-effect curves for MAL3-101, MG-132, 17-AAG, and their combinations were used to interpolate the median inhibitory concentration that caused 30% (IC30), 50% (IC50), and 70% (IC70) reductions in the % viable cells compared to untreated cells.
Cells (1×10^5) were plated in 96-well microtiter plates (Costar, Cambridge, Mass.) in 100 μL, of growth medium and exposed for indicated periods to various concentrations of compounds or their combinations. Control cells were cultured in DMSO. All studies were performed in triplicate and repeated at least three times independently. Survival was measured by an MTS assay (Promega, Madison, Wis.) as per the manufacturer's directions. The absorbance (A450) ratio of treated to untreated cells, after the subtraction of background absorbance, was multiplied by 100 to obtain percent cell survival. Cell death was measured by trypan blue dye exclusion in identically plated cultures.
DMSO-treated cultures were compared to drug-treated cultures by Student's t tests or by Dunnett's post-hoc test following significant repeated-measures one-way analysis of variance. All tests were two-tailed, and statistical significance was set at P≦0.05. Isobologram analysis was performed to derive combination index (CI) values based upon the Chou-Talalay method using CalcuSyn software (Biosoft, Ferguson, Mo. and Cambridge, United Kingdom) as described in L. Catley, E. Weisberg, T. Kiziltepe, Y. T. Tai, T. Hideshima, P. Neri, P. Tassone, P. Atadja, D. Chauhan, N. C. Munshi, K. C. Anderson, Aggresome induction by proteasome inhibitor Bortezomib and {alpha}-tubulin hyperacetylation by tubulin deacetylase (TDAC) inhibitor LBH589 are synergistic in myeloma cells, Blood (2006), which is incorporated herein by reference.

Experiment [3] has as its system XBP-1 mRNA splicing. Kind of experiment: RT-PCR analysis of XBP-1 mRNA splicing (UPR) in NCI-H929. Format: cell-based, human. The procedure: (§1) Total RNA was prepared from NCI-H929 and HEK293 cells using TRIzol reagent (Invitrogen, Carlsbad, Calif.) following exposure to MAL3-101, MG-132, and 17-AAG alone and in combination at the indicated time points. Tunicamycin was used at varying concentrations.
(§2) Total RNAs were used for the first-strand synthesis with the Superscript reverse transcriptase (Invitrogen, Carlsbad, Calif.). PCR primers (5′-[…]-3′ [Seq. ID No. 1] and 5′-[…]-3′ [Seq. ID No. 2]) encompassing the missing sequences in XPB-1s were used for the PCR amplification with AmpliTaq Gold polymerase (Applied Biosystem, Foster City, Calif.) with a probe set spanning the spliced-out region. PCR products were separated by electrophoresis on a 3% agarose gel (Agarose-1000, Invitrogen) and visualized them by ethidium bromide staining to assess the degree of X-box binding protein-1 unspliced (XBP-1u, ˜280 bp) and spliced (XBP-1s, ˜265 bp) mRNA.
Unspliced (XBP-1u, 285 bp) and spliced (XBP-1s, 259 bp) XBP-1 mRNA levels of treated NCI-H929 were determined by PCR amplification of total RNA that was reverse transcribed by SuperScript Reverse Transcriptase (Invitrogen, Carlsbad, Calif.). PCR primers (5′-[…]-3′ [Seq. ID No. 1] and 5′-[…]-3′ [Seq. ID No. 2]), which flank the 26-nt intron of XBP1 mRNA, were used for PCR amplification with Ex Taq polymerase (Takara Bio, Shiga, Japan).

Experiment [4] has as its system Hsp70. Description: Hsp70 modulation.
The subject of experiment [5] is XBP-1 splicing. Kind of experiment: RT-PCR analysis of XBP-1 splicing in HEK293. The class given is cell-based. The conditions noted are these: HEK293, 6 hours. The procedure:
as §1, §2

Entries after “also recorded” stand apart in the source; their conditions may differ. Where two headings read alike, the source gives them in different places.

In the case of `C=CCNC1=C2C[C@@H](C)C[C@H](OC)[C@H](O)[C@@H](C)/C=C(\C)[C@H](OC(N)=O)[C@@H](OC)/C=C\C=C(/C)C(=O)NC(=CC1=O)C2=O` [17-AAG, 17-allylamino-17-demethoxygeldanamycin], the “levels of BiP” value in experiment [1] is “did not change”. Moreover, the IC50 was 400 nM in experiment [2] (read-out: IC50 (reduction of % viable cells), single agent, NCI-H929, 40 h exposure, MTS assay, agent alone); 300 nM in experiment [2] (read-out: IC50 of 17-AAG in combination with 5 μM MAL3-101, NCI-H929, MTS, plus 5 μM MAL3-101); 30 nM in experiment [2] (read-out: IC50 of 17-AAG in combination with 10 μM MAL3-101, NCI-H929, 40 h, MTS, plus 10 μM MAL3-101). In addition, the “XBP-1 mRNA splicing at early time points” value in experiment [3] (NCI-H929, early time points (4 h), concentrations that gave synergistic cytotoxicity) is listed as “no XBP-1 mRNA splicing was observed”.

With `CC(C)(C)NC(=O)C(c1ccc(I)cc1)N(CCN1CCOCC1)C(=O)CCCNC(=O)c1ccccc1` (stereo not drawn) [MAL3-51], the “response of percent viability” value in experiment [2] (NCI-H929, 10 or 20 μM, 40 h, MTS) was “no response”. Besides, the “potency as Hsp70 modulator relative to MAL3-101” value in experiment [4] is “less potent Hsp70 antagonist than MAL3-101; also recorded: substantially less potent Hsp70 modulator”.

For tunicamycin [reference compound], the “XBP-1 mRNA splicing, positive control” value in experiment [3] (NCI-H929, 5 μg/ml, 4 h) was “induced XBP-1 mRNA splicing”. Besides, in experiment [5], the “XBP-1 splicing in HEK293” value is “Stronger XBP-1 splicing was observed”.

A word on the IC50: it is the concentration that gives 50% inhibition.

These data come from patent US8754094B2, “Methods for heat shock protein dependent cancer treatment” (The Research Foundation of State University of New York, priority 2007, dated 2014).
